# According to patent US6103883A (priority 1999, dated 2000):
# Target: T1, verotoxin binding to Gb3 (Enterobacteria phage H19B, UniProt P69179)
# Conditions: spectrophotometric detection; FIG. 6B
row,Compound,inhibition of binding of verotoxin to Gb3
1,O=C(CC12CC3CC(CC(C3)C1)C2)NC(CO[C@@H]1O[C@H](CO)[C@H](O)[C@H](O)[C@H]1O)C(O)C(=O)O (stereo partly shown) [Compound B2],do not appear to be effective inhibitors
2,CCCCCCCCCCCCC/C=C/[C@@H](O)[C@H](CO[C@@H]1O[C@H](CO)[C@H](O)[C@H](O)[C@H]1O)NC(=O)CC12CC3CC(CC(C3)C1)C2 [Compound B1],do not appear to be effective inhibitors
3,CCCCCCCCCCCCC/C=C/[C@@H](O)[C@H](CO[C@@H]1O[C@H](CO)[C@@H](O[C@@H]2O[C@H](CO)[C@H](O[C@H]3O[C@H](CO)[C@H](O)[C@H](O)[C@H]3O)[C@H](O)[C@H]2O)[C@H](O)[C@H]1O)NC(=O)CC12CC3CC(CC(C3)C1)C2 [Compound A3],effective water-soluble inhibitor
4,O=C(CC12CC3CC(CC(C3)C1)C2)NC(CO[C@@H]1O[C@H](CO)[C@@H](O[C@@H]2O[C@H](CO)[C@H](O[C@H]3O[C@H](CO)[C@H](O)[C@H](O)[C@H]3O)[C@H](O)[C@H]2O)[C@H](O)[C@H]1O)C(O)C(=O)O (stereo partly shown) [Compound A1],do not appear to be effective inhibitors

# Target: T1, verotoxin binding to Gb3
# Conditions: competition with radiolabelled verotoxin 1; FIG. 5C
row,Compound,inhibition of verotoxin binding to Gb3
1,CN(C)C(CO[C@@H]1O[C@H](CO)[C@@H](O[C@@H]2O[C@H](CO)[C@H](O[C@H]3O[C@H](CO)[C@H](O)[C@H](O)[C@H]3O)[C@H](O)[C@H]2O)[C@H](O)[C@H]1O)C(O)C(=O)NC12CC3CC(CC(C3)C1)C2 (stereo partly shown) [Compound A],effective inhibition
2,CN(C)C(CO[C@@H]1O[C@H](CO)[C@@H](O[C@@H]2O[C@H](CO)[C@H](O[C@H]3O[C@H](CO)[C@H](O)[C@H](O)[C@H]3O)[C@H](O)[C@H]2O)[C@H](O)[C@H]1O)C(O)C(=O)Nc1c2c(nc3ccccc13)CCCC2 (stereo partly shown) [Compound B],effective inhibition
3,"OC[C@H]1O[C@H](O[C@@H]2[C@H](O)[C@@H](O)[C@H](O[C@H]3[C@H](O)[C@@H](O)C(O)O[C@@H]3CO)O[C@@H]2CO)[C@H](O)[C@@H](O)[C@H]1O (stereo partly shown) [Gb3 -sugar, globotriaose, reference compound]",virtually no inhibition
